Laboratory results reported in patent publication US20010010922A1, “CLONING AND USES OF THE GENETIC LOCUS BCL-6” (priority 1994, published 2001).
Entries after “also recorded” stand apart in the source; their conditions may differ. Peptide text beside a SMILES is read from it. * marks the point of attachment. Cbz = O=C(OCc1ccccc1)*

What was measured:
BCL-6 [1] = test: MEK-2E mediated degradation of BCL-6 in transfected 293T cells, Western blot; assay type: cell-based; settings: 293T cells transfected with BCL-6 and MEK-2E; inhibitor 50 μM added 8 hrs after transfection
Description: (§1) FIGS. 22A-22B MAPK-induced BCL-6 degradation is mediated by the ubiquitin/proteasome pathway. (FIG. 22A) Western blot analysis of BCL-6 proteins in 293T cells transfected with BCL-6 in the absence or presence of co-transfected MEK-2E treated with 0.2% DMSO (lanes 1-3), 50 μM Calpain inhibitor II (lanes 4-6), or 50 μM MG132 (lanes 7-9) (added 8hrs after transfection). (FIG. 22B) 293T cells were transfected with BCL-6, His-Ub, and MEK-2E in the absence (lanes 1-4) or presence of MG132 (lanes 5-8). Cell lysates were immunoprecipitated with anti-BCL-6 antibodies (N-70-6) and the immunoprecipitants were analyzed by 6% SDS-PAGE followed by Western blot analysis using anti-ubiquitin antibodies.
293T cells, grow in DMEM, 10% FBS, were transfected transiently with various DNA vectors using standard calcium phosphate precipitation methods. […]
(§2) Total RNA were isolated from cells by using Trizol-reagents (GIBCO-BRL) and equal amounts of RNA were separated on 1% formaldehyde-agarose gel. […] For Ramos cells and their stable transfectants (untreated or treated), equal amounts of protein were analyzed by 8% or 10% SDS-PAGE, and subsequently by Western blot analysis using anti-BCL-6 (N-70-6), anti-ERK2 (C-14) or anti-HA (12CA5) antibodies at 1:3000, 1:1000 or 1:500 dilutions. […]

[2] = system: BCL-6/ubiquitin conjugates; test: In vivo ubiquitination assay in transfected 293T cells (anti-BCL-6 immunoprecipitation, anti-ubiquitin Western blot); assay type: cell-based
Description: as §1, with “antibodies. […]” for “antibodies.”
Therefore, we tested whether MEK-2E mediated degradation of BCL-6 in transfected 293T cells could be inhibited by the proteasome inhibitor Cbz-LLL (MG132) (Kim and Maniatis, 1996; Palombella et al., 1994; Rock et al., 1994). […] Because the addition of multiple ubiquitins to the proteolysis substrate is a key step preceding target degradation by the proteasome, we then tested whether BCL-6/ubiquitin conjugates in vivo could be detected. […] Cell lysates were subjected to immunoprecipitation with anti-BCL-6 antibodies, and the immunoprecipitates were analyzed by Western blotting using anti-ubiquitin antibodies. […]

BCL-6 [3] = test: Anti-IgM treatment of Ramos cells, Western blot of BCL-6; assay type: cell-based, human; settings: inhibitor 50 μM added 30 min (PD098059) or 1 hr (MG132) before anti-IgM
Description: FIGS. 23A-23E. BCL-6 is phosphorylated and degraded by antigen receptor signaling in B cells. Ramos cells ([…]) were treated with anti-IgM ([…]) and harvested at different time points after treatment as indicated. (FIG. 23A) (Top three panels) Equal amounts of cell extracts were used for Western blot analysis using anti-BCL-6 (top), or anti-ERK2 (middle) antibodies, and for solid phase ERK2 kinase assays (MBP, bottom); Equal amounts of RNAs (10 μg) were used for Northern blot analysis with BCL-6 or GAPDH probes (bottom). (FIG. 23B) Hyperphosphorylated BCL-6 proteins are more unstable. […] Cell extracts were immunoprecipitated with anti-BCL-6 antibodies and analyzed by SDS-PAGE followed by autoradiography. […] Equal amounts of cell extracts were loaded on 7% (HA-BCL-6 or HA-BCL-6Ala333,343) or 10% SDS-PAGE (HA-BCL-6ZF) and the amount of exogenous BCL-6 proteins were analyzed by Western blot using anti-HA antibodies (12CA5).
as §2

Compound: CC(C)C[C@@H](C=O)NC(=O)[C@H](CC(C)C)NC(=O)[C@H](CC(C)C)NC(=O)OCc1ccccc1 [MG132, N-CBZ-Leu-Leu-Leu-AL] (Cbz-Leu-Leu-Leu-aldehyde)
- inhibition of MEK-2E mediated BCL-6 degradation (BCL-6 [1]): prevented; also recorded: completely inhibited
- multi-ubiquitinated forms of BCL-6 (BCL-6/ubiquitin conjugates) ([2]; 293T cells transfected with BCL-6, His-Ub and MEK-2E, MG132 50 μM (lane 8)): detectable at high levels
- multi-ubiquitinated forms of BCL-6 (BCL-6/ubiquitin conjugates) ([2]; 293T cells transfected with BCL-6 and His-Ub, no MEK-2E, MG132 50 μM (lane 7)): low levels were detectable
- inhibition of anti-IgM-induced BCL-6 degradation (BCL-6 [3]): specifically inhibited; also recorded: prevented

Compound: COc1cccc(-c2cc(=O)c3ccccc3o2)c1N [PD098059]
- inhibition of anti-IgM-induced BCL-6 degradation (BCL-6 [3]): inhibited; also recorded: prevented

Compound: CSCC[C@@H](C=O)NC(=O)[C@H](CC(C)C)NC(=O)[C@H](CC(C)C)NC(C)=O [calpain inhibitor II] (Ac-Leu-Leu-Met-aldehyde)
- inhibition of MEK-2E mediated BCL-6 degradation (BCL-6 [1]): not
